One data set has as its system tau. The experiment in a line: tau-1 immunoreactivity in primary cell cultures (western blot). The format is cell-based, rat. Conditions: cortical and hippocampal cultures, 1-100 μM. The protocol: Primary cell cultures were grown as described in EXAMPLE 38. Cell supernatants were removed and the cells were washed once in medium prior to the addition of cold phosphate buffre saline ph=7.4 (PBS) solution containing 0.2 mM EDTA. Cells were scraped using a rubber policeman, transferred to Eppendorf tubes, and centrifuged at 4° C. Cell pellets were resuspended in lysis buffer (EDTA 5 mM, Tris 50 mM, Triton 1%, NaCl 150 mM) containing protease inhibitors (5 units/ml apronitin, […] and 0.1 mM PMSF, Sigma) and subjected to centrifugation at 4° C. Supernatants were transferred into Eppendorf tubes and kept at −20° C. till analyzed. The extent of tau-1 immunoreactivity (an antibody that recognizes a non-phosphorylated tau at Ser^199) was determined by western blots.

Data set [1] in a line: Morris water maze in C57BL/10SnJ (small hippocampus) vs C57BL6J mice. Conditions: for reversal test, swimming speed: normal hippocampi mice, AF150(S) 0.5 mg/kg, AF267B 1 mg/kg. The format is in vivo. The procedure:
C57BL/10SnJ (B10) mice were selected due to their small hippocampi and decreased number of hippocampal pyramidal neurons; the cell loss seemed to be associated with poor spatial learning.
Each group of mice was randomly divided into 7 treatment groups (n=12-14/group). […] All tested compounds and saline were administered once a day for 4 days before starting the behavioral testing, and then for the duration of the 5-day experiment, 30 minutes before testing.
Training: Each mouse was trained for four consecutive days, four trials (one block) per day, in which the platform position remained constant and was located in the center of the southeast quadrant of the pool. Within each block of four trials, each mouse started at each of the starting locations, but the sequence of locations was randomly selected. A trial consisted of placing a mouse by hand into the water facing the wall of the pool at one of four starting locations, north, south, east or west, around the pool's perimeter. Escape latency (the time to find the platform), path length (the distance traveled by the mouse) and speed (the swimming rate of the mouse) were recorded on each trial by the monitoring system.
For each mouse, the path length, escape latency, and swimming speed of the four trials on each of the 4 training days were grouped into blocks (one block for each day). […] Specific comparisons were performed, using the simple main effects contrasts analysis, which is specifically suited for testing significant interactions.
Transfer test. During trial No. 17, on the fourth day, the platform was entirely removed from the pool (a probe trial). In this trial, the mouse was placed into the water for a limited period (30 s), and its spatial bias was measured by recording the relative distribution of escape latency and path length over the four quadrants of the pool.
Reversal test. During trials 18-21, on the fifth day, the platform position was changed to the northwest quadrant, opposite to the training quadrant Thus, during reversal learning, the platform location was moved relative to the configuration of objects within the room, but the pool occupied the same place within the room throughout the entire experiment. Testing of the […] and measures taken were the same as in training.
For each mouse, the escape latency, path length and swimming speed of the reversal test (trials No. 18-21) were grouped into one block.

A further data set has as its system APPs secretion. Put plainly: APPs secretion in rat primary hippocampal, cortical and spinal cord cultures. It is filed as cell-based. The note with it: 100 μM, 1 h.
Data set [2] is described as follows: Aging microcebes, chronic treatment. It is filed as in vivo. The note with it: chronic treatment for 18 months. From the text:
Aging microcebes show similar cognitive deficits and cerebral lesions to those observed in aging humans and in AD patients. Thus this is a good animal model for AD, […] major hallmarks in AD {plaques (Aβ), paired helical filaments (hyperphophorylated and aggregated τ) and cognitive dysfunction}.

The test system of another data set is ApoE. Put plainly: ApoE synthesis and secretion in rat primary type 1 astrocytes. Conditions: 96 hrs; 0.1 nM. The format is cell-based.
Data set [3] in a line: Morris water maze in aged rats. The note with it: for reversal learning: AF267B 1 mg/kg, AF292 1 and 0.5 mg/kg po. It is filed as in vivo, rat. The text has this:
Old (22-24 months old) and young (three months old) Sprague-Dawley rats had been tested in the MWM.

The conditions of data set [4]: rat, in vivo, po.
Protocol: This calculation was based on the brain weight (2 gr) vs. total plasma volume (14 ml).
Data set [5] is described as follows: pKa and free base fraction at CSF pH. The note with it: pH 7.35 (CSF), calculated from pKa.
Protocol: For such compounds at the relevant pH of 7.35, only 2.2% are in non-ionized form. […] This calculation was based on the brain weight (2 gr) vs. total plasma volume (14 ml).
Data set [6] in a line: Chronic oral toxicity up to 13 weeks, dog.
Another data set relates to β-catenin. The experiment in a line: β-catenin levels in rat hippocampal neurons. It is filed as cell-based. The note with it: 100 μM; Aβ1-40 5 μM. The protocol:
(§1) This study was performed in rat hippocampal primary cell cultures using the methods described by Garrido J L et al. (FASEB J 2002; 16:1982).

Data set [7] in a line: CNS safety, general observation and Irwin test in rats. The format is in vivo, rat. The procedure: AF292 was evaluated in rodents for possible effects on general behavior and other […] related pharmacological effects.
A further data set has as its system GSK-3β. Put plainly: GSK-3β activity in rat hippocampal neurons. The note with it: 10 μM with Aβ fibrils 10 μM (fibrils alone 370%). The format is cell-based. The procedure: as §1
Data set [8] can be described thus: Chronic oral toxicity up to 13 weeks, rat. The format is in vivo, Wistar rat.
The target of data set [9] is T1, human M5 receptor (Homo sapiens, UniProt P08912).
T1 construct: expressed in transfected cells
T1 sequence (P08912 whole entry): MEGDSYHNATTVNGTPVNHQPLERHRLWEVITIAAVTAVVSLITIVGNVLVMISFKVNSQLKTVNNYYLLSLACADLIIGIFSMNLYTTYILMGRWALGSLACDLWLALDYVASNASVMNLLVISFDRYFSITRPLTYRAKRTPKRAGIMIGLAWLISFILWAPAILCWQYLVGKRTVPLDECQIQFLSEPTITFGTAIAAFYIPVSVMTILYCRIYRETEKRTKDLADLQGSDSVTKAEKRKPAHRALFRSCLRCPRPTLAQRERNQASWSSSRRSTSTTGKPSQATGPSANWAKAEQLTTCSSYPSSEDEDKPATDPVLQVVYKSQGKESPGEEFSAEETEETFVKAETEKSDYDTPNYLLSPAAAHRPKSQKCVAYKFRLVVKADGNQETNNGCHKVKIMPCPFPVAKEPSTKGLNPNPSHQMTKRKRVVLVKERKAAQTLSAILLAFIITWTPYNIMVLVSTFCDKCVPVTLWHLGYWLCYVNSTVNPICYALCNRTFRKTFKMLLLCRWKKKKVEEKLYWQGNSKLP
The experiment in a line: Arachidonic acid (AA) release, human M5. It is filed as cell-based.

Another data set concerns the target M2 mAChR (Homo sapiens, UniProt P08172). Put plainly: Intracellular Ca ions in modified cell cultures, M2. The format is cell-based. The note with it: 10^−9-10^−3M.
The test system of data set [10] is adenosine A1, A2A, A3; alpha 1, alpha 2, beta 1; AT1; BZD; B2; CCKA; D1, D2S; ETA; GABA; GAL2; IL-8B; CCR1; H1, H2; MC4; ML1; NK2, NK3; Y1, Y2; NT1; opiate …. The experiment in a line: Selectivity binding panel for AF292. The note with it: 10 μM.
Data set [11] has as its target T1, human M5 receptor. The experiment in a line: PI hydrolysis, human M5. The format is cell-based.
The mark [12] stands for this setting: normal hippocampus mice, AF150(S) at 1 mg/kg.
[13] abbreviates: small hippocampus mice, both doses.
[14] abbreviates: small hippocampus mice, AF150(S) both doses, AF267B the higher dose.
[15] abbreviates: small hippocampus mice, AF compounds 0.5 and 1 mg/kg i.p., rivastigmine, nicotine 1 mg/kg i.p.

Entries after “also recorded” stand apart in the source; their conditions may differ. Where two headings read alike, the source gives them in different places.

M2 mAChR, sequence (P08172 whole entry): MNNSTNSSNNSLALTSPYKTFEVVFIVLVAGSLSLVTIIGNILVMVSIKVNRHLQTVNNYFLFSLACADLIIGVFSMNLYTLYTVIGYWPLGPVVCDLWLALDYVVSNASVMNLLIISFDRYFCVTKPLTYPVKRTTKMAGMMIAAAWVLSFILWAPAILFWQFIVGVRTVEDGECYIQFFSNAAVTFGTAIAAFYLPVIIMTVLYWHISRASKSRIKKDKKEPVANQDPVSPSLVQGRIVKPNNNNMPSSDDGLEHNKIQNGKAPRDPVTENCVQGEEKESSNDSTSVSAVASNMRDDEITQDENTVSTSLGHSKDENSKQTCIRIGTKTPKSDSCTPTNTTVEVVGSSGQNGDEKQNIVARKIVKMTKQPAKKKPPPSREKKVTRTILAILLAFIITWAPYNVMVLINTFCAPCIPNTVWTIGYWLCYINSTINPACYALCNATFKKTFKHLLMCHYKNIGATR
Protocol for ApoE: Primary cultures of type 1 astrocytes were derived from the cortex of Sprague Dawley rats. The compounds tested were dissolved in the culture media and added to cells for 24, 48, 72 and 96 hrs. Media was then removed and kept frozen until ApoE protein levels were evaluated by immunoblot analysis as described in Poirier et al Neuroscience 55: 81-90 (1993).

For the molecule `CC1=NCC2(CCN(C)CC2)S1` [AF150(S), 2,8-Dimethyl-1-thia-3,8-diaza-spiro[4.5]dec-2-ene], the “tau-1 immunoreactivity (non-phosphorylated tau)” value in the data set on tau was “effective in elevating tau immunoreactivity”. Besides, in data set [1], the “reversal test, swimming speed” value is listed as “significantly decreased”. Besides, in [1] (normal hippocampus mice), the “training, escape latency” value is “increased the escape latencies” and the “training, swimming speed” value is reported as “impaired the swimming speed”. The “reversal test, escape latency” value in data set [1] (normal hippocampus mice, AF150(S) at 0.5 mg/kg) is on record as “impaired the escape latency”. Besides, in data set [1] (setting [12]), the “reversal test, path length” value is on record as “impairment of reversal learning” and the “transfer test, spatial bias” value is reported as “only a partial spatial bias”. Further, the “training, path length” value in [1] (normal hippocampus mice, AF150(S) only the higher dose) is “impaired the path length”. In data set [1] (small hippocampus mice), the “training, swimming speed” value is “enhancing effect of AF150(S) was equal in both doses” and the “transfer test, spatial bias” value is “complete spatial bias”. In addition, in [1] (setting [13]), the “reversal test, escape latency” value is given as “improved the escape latency”. In [1] (setting [14]), the “training, path length” value is reported as “positively affected the performance”. Besides, the “training, escape latency” value in data set [1] (setting [15]) is recorded as “positively affected the training performance”. In addition, in the data set with APPs secretion, the “APPs secretion, fold over control” value worked out at 2.8 fold. Also, in [2], the astrogliosis and inflammation result was “decreased astrogliosis and inflammation”; the “cognitive and behavioral impairments” value is “improved the cognitive and behavioral impairments”; the “hyperphosphorylated τ proteins, neurons with aggregated τ, paired helical filaments” value is given as “decreased hyperphosphorylated τ proteins”. Moreover, the “inhibition of ApoE production” value with ApoE is recorded as “to a lesser extent”.

In the case of `CC[C@@H]1SC2(CCN(C)CC2)NC1=O` [AF267B, (S)-2-ethyl-8-methyl-1-thia-4,8-diaza-spiro[4.5]decan-3-one], in [3], the swimming ability result is given as “no significant effect on the swimming ability” and the reversal learning result is given as “improved significantly the reversal learning”. Further, the learning result in data set [3] (1 mg/kg) is reported as “tendency for improvement”. In addition, the “tau-1 immunoreactivity (non-phosphorylated tau)” value in the data set on tau is “effective in elevating tau immunoreactivity”. The “reversal test, swimming speed” value in data set [1] is reported as “significantly decreased”. In data set [1] (normal hippocampus mice), the “training, escape latency” value is “did not significantly affect the escape latencies” and the “training, swimming speed” value is given as “had no such effect”. Moreover, in [1] (small hippocampus mice), the “training, swimming speed” value was “enhanced the swimming speed in a dose dependent manner” and the “transfer test, spatial bias” value is on record as “complete spatial bias”. Besides, the “reversal test, escape latency” value in data set [1] (setting [13]) is reported as “improved the escape latency”. In data set [1] (setting [14]), the “training, path length” value is listed as “positively affected the performance”. Moreover, in data set [1] (setting [15]), the “training, escape latency” value is given as “positively affected the training performance”. Also, the “% of the compound found in the brain (Cmax brain/Cmax plasma)” value in data set [4] (female) is on record as 16%. In data set [4] (male), the “% of the compound found in the brain (Cmax brain/Cmax plasma)” value was 25%. In [5], the “% of the compound in free base form” value is given as 26.2%. Besides, in data set [6] (beagle dogs, oral, up to 13 weeks), the “ECG (heart rate, P wave, P-Q, QRS, QT)” value is given as “no changes in the ECG”. In addition, the “dose at which (muscarinic) effects are seen” value in data set [6] (dog) was greater than 9 mg/kg. Besides, the “no-adverse-effect-level (NOAEL)” value in [6] (dog, po, up to 13 weeks) was 6 to 9 mg/kg/day. Further, in the data set with β-catenin, the “Aβ1-40-induced degradation of soluble β-catenin” value was “prevented”. In the data set on APPs secretion, the “APPs secretion, fold over control” value turned out to be 2.8 fold. Further, in data set [7] (rat, 100 mg/kg, p.o.), the “IRWIN TEST, duration of signs” value was “duration 3-6 hrs.)”; the “IRWIN TEST, onset of signs” value is listed as “reduced startle response (onset: 0.5 hr;”; the “IRWIN TEST, signs (carriage, apathy, corneal reflex, diarrhea, grooming, urination, salivation, lacrimation, locomotor activity, respiration, startle)” value is reported as 100 mg/kg: abnormalities of carriage,. The “IRWIN TEST” value in [7] (rat, 1 & 10 mg/kg, p.o.) is on record as 1 & 10 no effect on gross behavior. Besides, in [7] (rat, p.o.), the “General Observation: Chromodacryorrhea, dose” value is given as “Chromodacryorrhea: 100 mg/kg, p.o”; the “General Observation: Convulsion, dose” value is recorded as “Convulsion: 50 mg/kg, p.o”; the “General Observation: Gnawing, dose” value was “Gnawing; 50 mg/kg, p.o”; the “General Observation: Hypothermia, dose” value is listed as “Hypothermia: 50 mg/kg, p.o”. In data set [7] (rat, p.o.), the “General Observation: Lacrimation, dose” value is on record as “Lacrimation: 50 mg/kg, p.o”; the “General Observation: Mydriasis, dose” value is recorded as “Mydriasis: 25 mg/kg, p.o”; the “General Observation: Salivation, dose” value is recorded as “Salivation: 40 mg/kg, p.o”; the “General Observation: Sedation, dose” value was “Sedation: 100 mg/kg, p.o”. For the same molecule, the “dose at which effects begin (salivation and lacrimation)” value in data set [7] (rats, po, first hour) was “about 40 mg/kg”. The “GSK-3β activity vs. control (100%)” value with GSK-3β is recorded as 150%. The “dose at which (muscarinic) effects are seen” value in data set [8] is given as greater than 40 mg/kg.

`CC[C@@H]1SC2(CCNCC2)NC1=O` [AF292, (S)-2-Ethyl-1-thia-4,8-diaza-spiro[4.5]decan-3-one]: the reversal learning result in [3] is on record as “did not reach significance”. In [3] (both doses (1 and 0.5 mg/kg po)), the “probe trial, spatial bias” value was “tendency for partial spatial bias”. In addition, the “AA release, agonist activity” value on human M5 receptor [9] was “inactive as an agonist; also recorded: PI, AA: M5 mAChR - no effect as agonist”. The “agonist activity at M2 mAChR” value on M2 mAChR was “inactive as an agonist; also recorded: M2 mAChR - no effects as agonist”. In addition, in data set [7] (rats, 1, 10, 30, 60, or 100 mg/kg orally), the “physical or behavioral signs” value is “No significant physical or behavioral signs”. For the same molecule, the “binding to other receptors, channels and transporter” value in data set [10] is reported as “no binding at all”. For the same molecule, on human M5 receptor [11], the “PI turnover, agonist activity” value was “PI, AA: M5 mAChR - no effect as agonist”.

The record behind these values is US7439251B2, “Methods and compositions for treatment of central and peripheral nervous system disorders and novel compounds useful therefor” (Israel Institute for Biological Research, priority 2002, dated 2008).
